Measurements from patent US20250026766A1, “Thiazolopyridyl Amide Derivatives as DNA Polymerase Theta Inhibitors” (BeiGene, Ltd., priority 2022, published 2025).

Target: Pol Theta (1-894) (Homo sapiens (Human), UniProt O75417)
Assay: Biochemical Pol Theta (1-894) ATPase IC50 assay (ADP-Glo, ssDNA substrate)
Conditions: ADP-Glo assay with ssDNA substrate, room temperature
Outline: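 His-tagged human Pol Theta 1-894 from Sf9 baculovirus cells, 2× enzyme solution at 12.5 nM, assayed with ssDNA substrate at room temperature in 40 mM Tris pH 7.5, 20 mM MgCl2, 1 mM DTT, 0.01% BSA, 0.05% Tween-20.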

Sequence of Pol Theta (1-894) (O75417 1-894): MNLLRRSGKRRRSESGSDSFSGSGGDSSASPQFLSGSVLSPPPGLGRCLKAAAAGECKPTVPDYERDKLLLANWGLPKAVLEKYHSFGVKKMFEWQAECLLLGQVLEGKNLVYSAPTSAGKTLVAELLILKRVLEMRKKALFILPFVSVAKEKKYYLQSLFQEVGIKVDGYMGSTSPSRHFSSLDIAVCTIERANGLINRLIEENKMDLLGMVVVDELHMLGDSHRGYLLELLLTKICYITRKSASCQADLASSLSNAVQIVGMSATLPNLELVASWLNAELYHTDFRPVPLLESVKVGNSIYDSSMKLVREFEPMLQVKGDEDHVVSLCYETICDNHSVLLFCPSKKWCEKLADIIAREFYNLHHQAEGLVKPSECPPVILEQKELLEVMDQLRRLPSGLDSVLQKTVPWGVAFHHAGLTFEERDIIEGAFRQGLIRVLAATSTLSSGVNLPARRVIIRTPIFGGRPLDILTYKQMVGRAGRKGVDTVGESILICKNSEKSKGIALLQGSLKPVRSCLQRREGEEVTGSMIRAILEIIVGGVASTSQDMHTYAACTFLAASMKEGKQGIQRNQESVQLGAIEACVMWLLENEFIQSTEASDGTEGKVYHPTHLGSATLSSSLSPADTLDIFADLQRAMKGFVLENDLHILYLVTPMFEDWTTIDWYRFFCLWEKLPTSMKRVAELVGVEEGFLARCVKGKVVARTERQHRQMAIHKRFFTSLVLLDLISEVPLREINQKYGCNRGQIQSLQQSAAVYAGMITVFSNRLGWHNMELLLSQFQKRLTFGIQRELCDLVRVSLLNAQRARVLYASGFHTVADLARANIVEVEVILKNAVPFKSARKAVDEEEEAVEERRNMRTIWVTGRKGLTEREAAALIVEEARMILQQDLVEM

SMILES | IC50
CCNC(=O)c1ccc(-c2ccc3nc(NC(=O)c4cnc(C)cc4-c4cc(C#N)ccc4OC)sc3n2)cc1 [Example 73, 4-(5-cyano-2-methoxyphenyl)-N-(5-(4-(ethylcarbamoyl)phenyl)thiazolo[5,4-b]pyridin-2-yl)-6-methylnicotinamide] | 15 nM
COc1ccc(C#N)cc1-c1cc(C)ncc1C(=O)Nc1nc2ccc(-c3ccc(NS(C)(=O)=O)c(F)c3)nc2s1 [Example 90, 4-(5-cyano-2-methoxyphenyl)-N-(5-(3-fluoro-4-(methylsulfonamido)phenyl)thiazolo[5,4-b]pyridin-2-yl)-6-methylnicotinamide] | 4.1 nM
COc1ccc(C#N)cc1-c1ccncc1C(=O)Nc1nc2ccc(-c3ccc(C#N)cc3)nc2s1 [Example 38, 4-(5-cyano-2-methoxyphenyl)-N-(5-(4-cyanophenyl)thiazolo[5,4-b]pyridin-2-yl)nicotinamide] | 11 nM
COc1ccccc1-c1cnncc1C(=O)Nc1nc2ccc(C(=O)c3ccc(Cl)cc3)nc2s1 [Example 137, N-(5-(4-chlorobenzoyl)thiazolo[5,4-b]pyridin-2-yl)-5-(2-methoxyphenyl)pyridazine-4-carboxamide] | 54 nM
